ChEMBL document CHEMBL3875190, “MARK inhibitors: Declaring a No-Go decision on a chemical series based on extensive DMPK experimentation” (Bioorg Med Chem Lett, 2017)

Legend:
[1] = Half life in dog liver microsomes; format: ADME, Canis lupus familiaris
[2] = Total plasma clearance in dog; format: ADME, cell-free, Canis lupus familiaris
[3] = Half life in rat liver microsomes; format: ADME
[4] = Partition coefficient, logD of compound at pH 7 by HPLC analysis; format: physicochemical; conditions: octanol/water
[5] = biological target: MAP/microtubule affinity-regulating kinase 3 (Homo sapiens, UniProt P27448); assay: Inhibition of MARK3 (unknown origin)
Chain of MAP/microtubule affinity-regulating kinase 3 (P27448 whole entry): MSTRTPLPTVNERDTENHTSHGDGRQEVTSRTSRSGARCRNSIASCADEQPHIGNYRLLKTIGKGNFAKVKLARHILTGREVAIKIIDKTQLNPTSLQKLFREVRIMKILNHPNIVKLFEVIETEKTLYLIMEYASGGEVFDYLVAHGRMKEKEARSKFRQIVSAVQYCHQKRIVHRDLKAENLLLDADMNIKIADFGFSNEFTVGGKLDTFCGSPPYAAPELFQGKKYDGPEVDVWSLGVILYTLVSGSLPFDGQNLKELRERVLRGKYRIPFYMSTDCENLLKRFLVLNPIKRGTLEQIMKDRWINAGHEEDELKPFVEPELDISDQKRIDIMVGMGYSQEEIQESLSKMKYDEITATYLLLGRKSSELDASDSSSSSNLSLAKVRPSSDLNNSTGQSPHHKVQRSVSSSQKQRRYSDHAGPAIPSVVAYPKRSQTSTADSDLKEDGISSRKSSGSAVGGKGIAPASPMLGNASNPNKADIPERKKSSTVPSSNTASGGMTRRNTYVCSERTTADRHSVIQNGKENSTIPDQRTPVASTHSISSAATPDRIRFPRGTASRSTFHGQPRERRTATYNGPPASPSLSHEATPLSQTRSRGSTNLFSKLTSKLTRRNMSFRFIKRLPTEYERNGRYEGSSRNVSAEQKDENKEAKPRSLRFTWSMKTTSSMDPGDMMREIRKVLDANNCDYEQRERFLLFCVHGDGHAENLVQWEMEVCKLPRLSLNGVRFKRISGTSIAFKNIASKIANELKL

[6] = Volume of distribution in rat; format: ADME; conditions: in vivo
[7] = Total plasma clearance in rat; format: ADME, cell-free
[8] = Drug metabolism in rat liver microsomes assessed as oxidative metabolite formation; format: ADME
[9] = Drug metabolism in human liver microsomes assessed as oxidative metabolite formation; format: ADME
[10] = Drug metabolism in human liver microsomes assessed as lactam hydrolysis; format: ADME
[11] = Drug metabolism in rat liver microsomes assessed as lactam hydrolysis; format: ADME
[12] = Stability in human liver cytosol; format: ADME
[13] = Stability in rat liver cytosol; format: ADME
[14] = Drug recovery in bile duct-cannulated rat bile after 8 hrs by chromatographic analysis; format: ADME, tissue-based; conditions: read-out: Drug recovery
[15] = Drug excretion in bile duct-cannulated rat urine after 8 hrs by chromatographic analysis; format: ADME; conditions: read-out: Drug excretion
[16] = Drug excretion in bile duct-cannulated rat bile after 8 hrs by chromatographic analysis; format: ADME, tissue-based; conditions: read-out: Drug excretion
[17] = Drug recovery in bile duct-cannulated rat urine after 8 hrs by chromatographic analysis; format: ADME; conditions: read-out: Drug recovery
[18] = Half life in human liver microsomes; format: ADME
[19] = Drug metabolism in rat hepatocytes assessed as glucuronidation; format: ADME, cell-based, Hepatocyte
[20] = Drug metabolism in rat hepatocytes assessed as oxidation; format: ADME, cell-based, Hepatocyte

Row | logD [4] | IC50 [5] [nM] | Vd [6] [L/kg] | clearance [7] [mL/min/kg] | Compound | half-life [3] [min] | other results
1 | 3.09 | 120 |  | 84 | CC[C@H](C)N1C(=O)C(C)(C)c2cnc(Nc3ccc(S(C)(=O)=O)cc3)nc21 | 26 | half-life [1]: 80 min; clearance [2]: 3 mL/min/kg
2 | 2.54 |  | 35 | 65 | CC[C@H](C)N1C(=O)C(C)(C)c2cnc(Nc3ccc(CN4CCN(C)CC4)cc3)nc21 |  | 
3 | 2.79 |  | 96 | 188 | CC[C@H](C)N1C(=O)C(C)(C)c2cnc(Nc3ccc(CNC4CCCOC4)cc3)nc21 (stereo partly specified) |  | 
4 | 2.68 |  | 3 | 135 | CC[C@H](C)N1C(=O)C(C)(C)c2cnc(Nc3ccc(CN4CCC(=O)N(C)CC4)cc3)nc21 |  | 
5 | 3.98 |  | 14 | 269 | CC[C@H](C)N1C(=O)C(C)(C)c2cnc(Nc3ccc(CN4CC(C)OC(C)C4)cc3)nc21 (stereo partly specified) |  | 

The next lines start with the compound.

Row | Compound | logD [4] | IC50 [5] [nM] | Vd [6] [L/kg] | clearance [7] [mL/min/kg] | half-life [3] [min] | other results
6 | CC[C@H](C)N1C(=O)C(C)(C)c2cnc(Nc3ccc(-c4nnc(C)[nH]4)cc3)nc21 | 2.21 | 80 |  |  | 50 | half-life [1]: 80 min; clearance [2]: 10 mL/min/kg
7 | C[C@@H](c1ccc(F)cc1)N1C(=O)C(C)(C)c2cnc(Nc3cccnc3)nc21 | 2.81 |  | 6.8 | 154 |  | 
8 | CC1(C)C(=O)N(C2CCCCC2)c2nc(Nc3cccc(CN4CCOCC4)c3)ncc21 |  |  |  |  |  | Drug metabolism [8]: Metabolite_Detected; Drug metabolism [9]: Metabolite_Detected; Drug metabolism [10]: Metabolite_Detected; Drug metabolism [11]: Metabolite_Detected
9 | CC[C@H](C)N1C(=O)C(C)(C)c2cnc(Nc3cccnc3)nc21 | 2.56 |  | 5.2 |  |  | 
10 | [3H]c1nc(Nc2cccnc2)nc2c1C(C)(C)C(=O)N2[C@H](C)CC |  |  |  |  |  | Stability [12]: Stable; Stability [13]: Stable; dose excreted at 8 h [14]: 60 to 90%; dose excreted at 8 h [15]: > 95%; dose excreted at 8 h [16]: > 95%; dose excreted at 8 h [17]: 60 to 90%
11 | CC(=O)N1CCC(N2C(=O)C(C)(C)c3cnc(Nc4cccnc4)nc32)CC1 | 1.18 | 2100 | 1.4 | 11 | > 60 | half-life [18]: > 60 min
12 | CC1(C)C(=O)N([C@H]2CCc3c(O)cccc32)c2nc(Nc3ccccc3)ncc21 |  |  |  |  |  | Drug metabolism [19]: Metabolite_Detected; Drug metabolism [20]: Metabolite_Detected
13 | CC(=O)N1CCC(N2C(=O)C(C)(C)c3cnc(Nc4ccc(F)cc4)nc32)CC1 | 2.5 | 2800 | 1.6 | 37 | > 60 | half-life [18]: 51 min
14 | CC1(C)C(=O)N(C2CCCCC2)c2nc(Nc3cccnc3)ncc21 | 2.82 |  | 2.8 | 47 |  | 
15 | CC(=O)N1CCC(N2C(=O)C(C)(C)c3cnc(Nc4ccccc4)nc32)CC1 | 1.6 |  | 1.1 | 37 | 38 | half-life [18]: 30 min
16 | CC[C@H](C)N1C(=O)C2(CC2)c2cnc(Nc3cccnc3)nc21 | 2.3 | 60 | 2.9 | 81 | 25 | Drug metabolism [20]: Metabolite_Detected
